Measurements taken from publication PMC4282330, “The yeast enzyme Eht1 is an octanoyl-CoA:ethanol acyltransferase that also functions as a thioesterase” (Yeast (Chichester, England), 2014).
Where “and” joins values, the source holds several entries; their conditions need not be identical. Identical values can stand only once.

What was measured:
[1] = molecular target: T1, Eht1 (Saccharomyces cerevisiae, UniProt P38295); assay: coupled alpha-ketoglutarate dehydrogenase assay of CoA release (NADH); type: biochemical; conditions: 0.125% ethanol, pH 7.4, 25 °C; assay insensitive to ethanol (thioesterase)
T1 construct: 55 kDa
T1 sequence (P38295 1-451): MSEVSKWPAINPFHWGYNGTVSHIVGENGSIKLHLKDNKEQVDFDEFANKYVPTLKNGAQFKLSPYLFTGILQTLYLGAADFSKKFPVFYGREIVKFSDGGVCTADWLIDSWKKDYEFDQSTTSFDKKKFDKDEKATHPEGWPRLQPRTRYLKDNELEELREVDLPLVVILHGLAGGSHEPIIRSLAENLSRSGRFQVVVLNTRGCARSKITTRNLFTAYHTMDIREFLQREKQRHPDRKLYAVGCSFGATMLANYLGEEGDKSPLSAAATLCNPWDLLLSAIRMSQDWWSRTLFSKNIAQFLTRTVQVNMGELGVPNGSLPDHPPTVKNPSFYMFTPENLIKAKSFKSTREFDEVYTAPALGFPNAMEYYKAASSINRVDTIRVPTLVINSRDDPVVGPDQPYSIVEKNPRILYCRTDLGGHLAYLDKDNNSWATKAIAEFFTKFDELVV

[2] = molecular target: the molecule itself; assay: SEC; Superdex 200 10/300 GL, 0.5 ml/min, in Column Buffer (50 mM sodium phosphate, pH 7.4, 150 mM NaCl, 5% glycerol, 0.1% FC-12); apparent size relative to molecular weight standards
[3] = substrate: CCCCCCCC(=O)SCCNC(=O)CCNC(=O)[C@H](O)C(C)(C)COP(=O)(O)OP(=O)(O)OC[C@H]1O[C@@H](n2cnc3c(N)ncnc32)[C@H](O)[C@@H]1OP(=O)(O)O; assay: coupled alpha-ketoglutarate dehydrogenase assay of CoA release (NADH); type: biochemical, Saccharomyces cerevisiae; conditions: 0.125% ethanol, pH 7.4, 25 °C, assay insensitive to ethanol (thioesterase)
Excerpt: coupled alpha-ketoglutarate dehydrogenase assay of CoA release (NADH) on Eht1 | the preferred substrate for Eht1 was octanoyl-CoA (largest kcat/KM)

[4] = molecular target: the molecule itself; assay: native gel or EMSA; blue native PAGE, 4–16% acrylamide Bis–Tris gels, Coomassie G-250 added to samples at 0.005%; purified Eht1 in FC12

In the case of `CCCCCCCCCCCC(=O)SCCNC(=O)CCNC(=O)[C@H](O)C(C)(C)COP(=O)(O)OP(=O)(O)OC[C@H]1O[C@@H](n2cnc3c(N)ncnc32)[C@H](O)[C@@H]1OP(=O)(O)O` [acyl-CoA within chain lengths C4–C14 (C12)], the KM [1] is reported as “acyl-CoA substrates of chain length C4–C14 followed classical Michaelis–Menten kinetics”.

`CCCCCCCCCC(=O)SCCNC(=O)CCNC(=O)[C@H](O)C(C)(C)COP(=O)(O)OP(=O)(O)OC[C@H]1O[C@@H](n2cnc3c(N)ncnc32)[C@H](O)[C@@H]1OP(=O)(O)O` [decanoyl-CoA] was tested, and the KM [1] was “acyl-CoA substrates of chain length C4–C14 followed classical Michaelis–Menten kinetics”.

`CCCC(=O)SCCNC(=O)CCNC(=O)[C@H](O)C(C)(C)COP(=O)(O)OP(=O)(O)OC[C@H]1O[C@@H](n2cnc3c(N)ncnc32)[C@H](O)[C@@H]1OP(=O)(O)O` [C4, acyl-CoA of chain length C4] was tested, and the KM [1] was “acyl-CoA substrates of chain length C4–C14 followed classical Michaelis–Menten kinetics”.

`CCCCCCCCCCCCCC(=O)SCCNC(=O)CCNC(=O)[C@H](O)C(C)(C)COP(=O)(O)OP(=O)(O)OC[C@H]1O[C@@H](n2cnc3c(N)ncnc32)[C@H](O)[C@@H]1OP(=O)(O)O` [C14, acyl-CoA of chain length C14] was tested, and the KM [1] was “acyl-CoA substrates of chain length C4–C14 followed classical Michaelis–Menten kinetics”.

B1: ethanol hexanoyl transferase 1 (Eht1) (enzyme, Saccharomyces cerevisiae, UniProt P38295 1-451, looked up)
chain: T1 sequence (P38295 1-451)
notes: Theoretical mass of the recombinant protein is printed as 55 kDa; also called recombinant Eht1; YBR177C gene product; source: yeast, plasmid pYES2CT, galactose-induced; purified from FC12-solubilized sedimenting membranes (Ni-NTA)
In the case of B1, the “stoichiometry N” value [2] is reported as ~5, the Km [3] is reported as 1.9 ± 0.6 µM and the kcat [3] is reported as 0.28 ± 0.02 s⁻¹. For the same molecule, the “stoichiometry N” value [4] was ~2 and ~4.
